Patent publication US20070010489A1 (priority 2002, published 2007)
Where two headings read alike, the source gives them in different places.

What was measured:
HIV = test: microbe, parasite or virus in culture; assay type: cell-based; settings: Human immunodeficiency virus 1
I84V/L90M = system: I84V/L90M; set-up: key to the marks not given beside the values
I50V (#1) = system: I50V (#1); set-up: key to the marks not given beside the values
30N82I88D = test: microbe, parasite or virus in culture; assay type: cell-based, HIV
84V90M [1] = biological target: T1, 84V90M (Human immunodeficiency virus type 1 group M subtype B, UniProt P04585, I572V/L578M); assay type: biochemical, HIV; settings: Enzymatic assay
46I50V = test: microbe, parasite or virus in culture; assay type: cell-based, HIV
48V54V82A = test: microbe, parasite or virus in culture; assay type: cell-based, HIV
48V54V82S = test: microbe, parasite or virus in culture; assay type: cell-based, HIV
84V90M [2] = biological target: T1, 84V90M; test: cell-based; set-up: species or system HIV; settings: Cell-based assay (MT-4)
48V82A90M = test: microbe, parasite or virus in culture; assay type: cell-based, HIV
WT = test: microbe, parasite or virus in culture; assay type: cell-based, HIV
84V90M [3] = biological target: T1, 84V90M; test: biochemical; assay type: biochemical, HIV; settings: Enzymatic assay
[4] = biological target: T2, recombinant HIV-1 protease (Human immunodeficiency virus type 1 group M subtype B, UniProt P04585); test: biochemical; settings: for Ki: read-out: Ki; for IC50: read-out: WT IC50
T2 construct: Enzyme: recombinant HIV-1 protease expressed in E. Coli; purchased Bachem California, Inc. H-9040; host or cells: E. coli

[5] = system: Recombinant HIV-1 Strains With Resistance Mutations in the Protease Gene; test: Cross-Resistance Profile Assay, whole panel; assay type: cell-based; settings: resistance = 5-fold and higher change in EC50 vs wild type; 11 mutant viruses
[6] = system: recombinant HIV-1 10I/48V/71V/82A/90M; test: microbe, parasite or virus in culture; assay type: cell-based; settings: MT-4, 48V82A90M; read-out: Cell-based assay (MT-4) EC50/nM 48V82A90M
[7] = system: mutant HIV-1 with I84V/L90M mutations; test: microbe, parasite or virus in culture; assay type: cell-based; settings: for I84V/L90M fold change: fold difference in EC50 mutant vs wild type, class symbols
[8] = system: recombinant HIV-1 10I/48V/54V/82A; test: microbe, parasite or virus in culture; assay type: cell-based; settings: MT-4, 48V54V82A; read-out: Cell-based assay (MT-4) EC50/nM 48V54V82A
[9] = system: recombinant HIV-1 30N/50S/82I/88D; test: microbe, parasite or virus in culture; assay type: cell-based; settings: MT-4, 30N82I88D; read-out: Cell-based assay (MT-4) EC50/nM 30N82I88D
[10] = system: recombinant HIV-1 46I/47V/50V; test: microbe, parasite or virus in culture; assay type: cell-based; settings: MT-4, 46I50V; read-out: Cell-based assay (MT-4) EC50/nM 46I50V
[11] = system: recombinant HIV-1 48V/54V/71V/82S; test: microbe, parasite or virus in culture; assay type: cell-based; settings: MT-4, 48V54V82S; read-out: Cell-based assay (MT-4) EC50/nM 48V54V82S
[12] = system: wild-type HIV-1 strain IIIB; test: microbe, parasite or virus in culture; assay type: cell-based; settings: Human immunodeficiency virus 1, IIIB
in vitro = settings: human, CC50 (μM)
[13] = Human immunodeficiency virus 1, read-out: EC50 30N 82I88D
[14] = Human immunodeficiency virus 1, read-out: EC50 WT
[15] = Human immunodeficiency virus 1, read-out: EC50 46I50V
[16] = Human immunodeficiency virus 1, read-out: EC50 48V54V 82A

SMILES: COc1ccc(S(=O)(=O)N(Cc2ccccc2)CC(O)C(Cc2ccccc2)NC(=O)OC2COC3OCCC23)cc1 (centres unmarked)
- EC50 (HIV): < 0.05 µM
- I84V/L90M fold change (I84V/L90M): +++
- I50V (#1) fold change (I50V (#1)): +++

SMILES: COc1ccc(S(=O)(=O)N(CC(O)C(Cc2ccccc2)NC(=O)OC2COC3OCCC23)CC(C)(C)CO)cc1 (centres unmarked)
- EC50 (HIV): < 0.05 µM
- I84V/L90M fold change (I84V/L90M): +++
- I50V (#1) fold change (I50V (#1)): +++

SMILES: COc1ccc(S(=O)(=O)N(CC(O)C(Cc2ccccc2)NC(=O)OC2COC3OCCC23)CC(C)(C)COCP(=O)(O)O)cc1 (centres unmarked)
- EC50 (HIV): 0.5 to 5 µM
- I84V/L90M fold change (I84V/L90M): +++

SMILES: CCOP(=O)(COCC(C)(C)CN(CC(O)C(Cc1ccccc1)NC(=O)OC1COC2OCCC12)S(=O)(=O)c1ccc(OC)cc1)OCC (centres unmarked)
- EC50 (HIV): < 0.05 µM
- I84V/L90M fold change (I84V/L90M): +++

SMILES: COc1ccc(S(=O)(=O)N(CC(O)C(Cc2ccccc2)NC(=O)OC2COC3OCCC23)CC(C)(C)COCP(=O)(OCc2ccccc2)OCc2ccccc2)cc1 (centres unmarked)
- EC50 (HIV): < 0.05 µM
- I84V/L90M fold change (I84V/L90M): ++

SMILES: COc1ccc(S(=O)(=O)N(CC(O)C(Cc2ccccc2)NC(=O)OC2COC3OCCC23)CC(C)(C)CCOCP(=O)(O)O)cc1 (centres unmarked)
- EC50 (HIV): 0.05 to 0.5 µM
- I84V/L90M fold change (I84V/L90M): ++
- I50V (#1) fold change (I50V (#1)): ++

SMILES: COc1ccc(S(=O)(=O)N(CC(O)C(Cc2ccccc2)NC(=O)OC2COC3OCCC23)CC(C)(C)CCOCP(=O)(OCc2ccccc2)OCc2ccccc2)cc1 (centres unmarked)
- EC50 (HIV): < 0.05 µM
- I84V/L90M fold change (I84V/L90M): +++
- I50V (#1) fold change (I50V (#1)): +++

SMILES: O=C1N(Cc2ccccc2)C(Cc2ccccc2)C(O)C(O)C(Cc2ccc(OCP(=O)(O)O)cc2)N1Cc1ccccc1 (centres unmarked) [listing 1 of 2 here]
- EC50 (30N82I88D; Cell-based assay (MT-4), 30N82I88D, read-out: EC50 30N 82I88D): 0.293 µM
- IC50 (84V90M [1]): 0.048 µM
- EC50 (46I50V; Cell-based assay (MT-4), 46I50V, read-out: EC50 46I50V): 0.589 µM
- EC50 (48V54V82A; Cell-based assay (MT-4), 48V54V82A, read-out: EC50 48V54V 82A): 1.44 µM
- EC50 (48V54V82S; Cell-based assay (MT-4), 48V54V82S, read-out: EC50 48V54V 82S): 1.9 µM
- EC50 (84V90M [2]): 2.46 µM
- EC50 (48V82A90M; read-out: EC50 48V82A 90M, Cell-based assay (MT-4), 48V82A90M): 3.29 µM
- EC50 (WT; read-out: EC50 WT): 0.107 µM

SMILES: O=C1N(Cc2ccccc2)C(Cc2ccccc2)C(O)C(O)C(Cc2ccc(OCP(=O)(OCc3ccccc3)OCc3ccccc3)cc2)N1Cc1ccccc1 (centres unmarked)
- IC50 (84V90M [3]): 158 nM

SMILES: O=C1N(Cc2ccccc2)C(Cc2ccccc2)C(O)C(O)C(Cc2ccc(OCP(=O)(O)O)cc2)N1Cc1ccccc1 (centres unmarked) [listing 2 of 2 here]
- IC50 (84V90M [3]): 210 nM

SMILES: Nc1n[nH]c2ccc(CN3C(=O)N(Cc4cccc(OCP(=O)(OCc5ccccc5)OCc5ccccc5)c4)C(Cc4ccccc4)C(O)C(O)C3Cc3ccccc3)cc12 (centres unmarked)
- IC50 (84V90M [1]): 0.043 µM
- Ki [4]: 0.000177 µM
- IC50 [4]: 0.018 µM
- EC50 (84V90M [2]): > 6 µM

SMILES: CCOP(=O)(COc1cccc(CN2C(=O)N(Cc3ccc4[nH]nc(N)c4c3)C(Cc3ccccc3)C(O)C(O)C2Cc2ccccc2)c1)OCC (centres unmarked)
- IC50 (84V90M [1]): 0.169 µM
- Ki [4]: 0.00193 µM
- IC50 [4]: 0.07 µM
- EC50 (84V90M [2]): 3 µM

SMILES: Nc1n[nH]c2ccc(CN3C(=O)N(Cc4ccc(OCP(=O)(OCc5ccccc5)OCc5ccccc5)cc4)C(Cc4ccccc4)C(O)C(O)C3Cc3ccccc3)cc12 (centres unmarked)
- IC50 (84V90M [1]): 2.04 µM
- Ki [4]: > 0.005 µM
- IC50 [4]: 0.276 µM
- EC50 (84V90M [2]): 4.96 µM

SMILES: CCOP(=O)(COc1ccc(CN2C(=O)N(Cc3ccc4[nH]nc(N)c4c3)C(Cc3ccccc3)C(O)C(O)C2Cc2ccccc2)cc1)OCC (centres unmarked)
- IC50 (84V90M [1]): 1.47 µM
- Ki [4]: > 0.005 µM
- IC50 [4]: 0.627 µM
- EC50 (84V90M [2]): > 6 µM

SMILES: CCCCOC(=O)C(C)NP(=O)(COc1ccc(CC(NC(=O)OC2COC3OCCC23)C(O)CN(CC(C)C)S(=O)(=O)c2ccc(OC)cc2)cc1)NC(C)C(=O)OCCCC (centres unmarked) [GS-16503]
- Total No. of Resistant Viruses [5]: 0

SMILES: O=C1N(Cc2ccccc2)C(Cc2ccccc2)C(O)C(O)C(Cc2ccccc2)N1Cc1ccccc1 (centres unmarked) [H, Ph, H]
- EC50 (30N82I88D; [13]): 3.36 µM
- IC50 (84V90M [1]): 0.631 µM
- IC50 [4]: 0.034 µM
- EC50 (WT; [14]): 2.49 µM

SMILES: CCOP(=O)(COc1ccc(CC2C(O)C(O)C(Cc3ccc(OC)cc3)N(Cc3cccc(N)c3)C(=O)N2Cc2cccc(N)c2)cc1)OCC (centres unmarked) [OCH3, Ph-mNH2, OCH2PO3Et2]
- IC50 (84V90M [3]): 56 nM
- IC50 (84V90M [1]): 0.056 µM
- EC50 (84V90M [2]): 0.535 µM

SMILES: CCOP(=O)(COc1ccc(CC2C(O)C(O)C(Cc3ccc(OC)cc3)N(Cc3ccc(O)cc3)C(=O)N2Cc2ccc(O)cc2)cc1)OCC (centres unmarked) [OCH3, Ph-pOH, OCH2PO3Et2]
- EC50 [6]: 54 nM
- EC50 ([7]; MT-4, 84V90M, read-out: Cell-based assay (MT-4) EC50/nM 84V90M): 148 nM
- EC50 [8]: 70 nM
- EC50 [9]: 25 nM
- EC50 [10]: 90 nM
- EC50 [11]: 129 nM

SMILES: CCOP(=O)(CCNC(=O)Oc1ccc(CC2C(O)C(O)C(Cc3ccc(OC)cc3)N(Cc3ccc(O)cc3)C(=O)N2Cc2ccc(O)cc2)cc1)OCC (centres unmarked) [OCH3, Ph-pOH, OCONH(CH2)2PO3Et2]
- IC50 (84V90M [3]): 49 nM

SMILES: O=C1N(Cc2ccccc2)C(Cc2ccc(O)cc2)C(O)C(O)C(Cc2ccc(O)cc2)N1Cc1ccccc1 (centres unmarked) [OH, Ph, OH]
- EC50 (30N82I88D; [13]): 0.756 µM
- IC50 (84V90M [1]): 0.397 µM
- EC50 (46I50V; [15]): 0.928 µM
- IC50 [4]: 0.031 µM
- EC50 (48V54V82A; [16]): 2.27 µM
- EC50 (84V90M [2]): 5.61 µM
- EC50 (WT; [14]): 0.117 µM

SMILES: CCOP(=O)(COc1ccc(CC2C(O)C(O)C(Cc3ccc(O)cc3)N(Cc3ccc(O)cc3)C(=O)N2Cc2ccc(O)cc2)cc1)OCC (centres unmarked) [OH, Ph-pOH, OCH2PO3Et2]
- IC50 (84V90M [1]): 0.018 µM
- EC50 (84V90M [2]): 1.91 µM

SMILES: COc1ccc(S(=O)(=O)N(CC(C)C)CC(O)C(Cc2ccc(OCP(=O)(OCc3ccccc3)OCc3ccccc3)cc2)NC(=O)OC2COC3OCCC23)cc1 (centres unmarked) [drawing 1768 R1=OBn R2=OBn]
- I84V/L90M fold change [7]: − (≦3)
- EC50 [12]: < 0.05 µM
- CC50 (MT-2 cells; human): 5 to 50 µM

SMILES: CCOP(=O)(COc1ccc(CC(NC(=O)OC2COC3OCCC23)C(O)CN(CC(C)C)S(=O)(=O)c2ccc(OC)cc2)cc1)OCC (centres unmarked) [drawing 1768 R1=OEt R2=OEt]
- CC50 (in vitro): 5 to 50 µM
- I84V/L90M fold change [7]: − (≦3)

SMILES: CCOC(=O)C(C)OP(=O)(COc1ccc(CC(NC(=O)OC2COC3OCCC23)C(O)CN(CC(C)C)S(=O)(=O)c2ccc(OC)cc2)cc1)Oc1ccccc1 (centres unmarked) [drawing 1775 R1=OPh R2=Lac-Et]
- CC50 (MT-2 cells; class symbols): 5 to 50 µM

SMILES: Nc1n[nH]c2ccc(CN3C(=O)N(Cc4cccc(OCP(=O)(O)O)c4)C(Cc4ccccc4)C(O)C(O)C3Cc3ccccc3)cc12 (centres unmarked) [m-OCH2PO3H2]
- IC50 (84V90M [1]): 0.033 µM
- EC50 (WT; read-out: EC50 WT): > 12 µM

SMILES: Nc1n[nH]c2ccc(CN3C(=O)N(Cc4cccc(O)c4)C(Cc4ccccc4)C(O)C(O)C3Cc3ccccc3)cc12 (centres unmarked) [m-OH]
- IC50 (84V90M [1]): 0.012 µM
- Ki [4]: 0.000128 µM
- IC50 [4]: 0.0016 µM
- EC50 (84V90M [2]): 0.475 µM

SMILES: Nc1n[nH]c2ccc(CN3C(=O)N(Cc4ccc(OCc5ccccc5)cc4)C(Cc4ccccc4)C(O)C(O)C3Cc3ccccc3)cc12 (centres unmarked) [p-OBn]
- Ki [4]: > 0.005 µM
- IC50 [4]: 0.353 µM
- EC50 (84V90M [2]): 5.31 µM
- EC50 (WT; read-out: EC50 WT): 2.12 µM

SMILES: Nc1n[nH]c2ccc(CN3C(=O)N(Cc4ccc(O)cc4)C(Cc4ccccc4)C(O)C(O)C3Cc3ccccc3)cc12 (centres unmarked) [p-OH]
- EC50 (30N82I88D; [13]): 0.079 µM
- EC50 (46I50V; [15]): 0.055 µM
- EC50 (48V54V82A; [16]): 0.032 µM
- EC50 (48V54V82S; Human immunodeficiency virus 1, read-out: EC50 48V54V 82S): 0.039 µM
- EC50 (48V82A90M; Human immunodeficiency virus 1, read-out: EC50 48V82A 90M): 0.019 µM
